Source: the supplement of paper PMC10307832

Compound: Cc1ccc(NC(=O)c2ccc(CN3CCN(C)CC3)cc2)cc1Nc1nccc(-c2cccnc2)n1 [Imatinib] + COc1cc2c(Oc3ccc(NC(=O)C4(C(=O)Nc5ccc(F)cc5)CC4)cc3F)ccnc2cc1OCCCN1CCOCC1 [Foretinib] (partner 0.25 µM)
Experiment: relative viability (nuclei count vs DMSO), 5 days (fraction); higher = more cells survive
In short: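 Nuclei were stained with Hoechst during a one-step fixation (final 0.05% Triton X-100, 1% formaldehyde, 1 ug/ml Hoechst) carried out 5 days after dosing, then counted on 4× images. The cells, lung cancer lines in 1536-well plates, had been dosed by pin tool the day after seeding with one drug alone or a fixed anchor-drug dose plus five library-drug doses (not always all listed) in √10 steps. Relative viability is the nuclei count in treated wells divided by that in vehicle wells, and each value is the median of duplicate plates.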

Cell Line | relative viability (first compound 0.02 µM) | relative viability (first compound 0.06325 µM) | relative viability (first compound 0.2 µM) | relative viability (first compound 0.6325 µM) | relative viability (first compound 2 µM)
NCI-H661 | 1 | 1.04 | 1.1 | 0.94 | 1.02
NCI-H727 | 0.969 | 0.898 | 0.891 | 0.712 | 0.834
NCI-H838 | 1.15 | 1.17 | 1.07 | 1.02 | 1.02
NCI-H1299 | 1.11 | 1.18 | 1.16 | 1.09 | 
NCI-H1355 | 1.05 |  | 1.07 | 0.964 | 0.983
NCI-H1395 | 0.952 | 1.15 | 1 |  | 1.02
NCI-H1437 | 1.37 | 1.26 | 1.33 | 1.22 | 1.24
NCI-H1563 | 0.924 |  | 0.902 | 0.845 | 0.925
NCI-H1650 | 0.962 |  | 1.01 | 1.2 | 1.06
NCI-H1651 | 0.902 | 0.619 | 0.87 | 0.79 | 0.77
NCI-H1666 | 0.926 | 0.911 | 0.943 | 1.15 | 0.966
NCI-H1734 | 1.06 | 1.2 | 0.939 | 0.776 | 0.87
NCI-H1755 | 0.917 | 1.02 | 0.98 | 0.948 | 
NCI-H1793 | 0.827 |  | 0.919 | 0.682 | 0.715
NCI-H1915 | 1.17 |  | 1.25 | 1.05 | 1.08
NCI-H1944 | 0.923 | 0.946 | 0.964 | 0.851 | 0.852
NCI-H1975 | 1.09 | 0.986 | 0.879 | 0.954 | 0.871
NCI-H1993 | 0.817 | 0.886 | 0.783 | 0.705 | 0.756
NCI-H2009 | 1.29 |  | 1.27 | 1.25 | 1.23

Cell Line | relative viability (first compound 0.02 µM) | relative viability (first compound 0.06325 µM) | relative viability (first compound 0.2 µM) | relative viability (first compound 0.6325 µM) | relative viability (first compound 2 µM)
NCI-H2023 | 0.87 |  | 0.873 |  | 0.776
NCI-H2085 |  | 0.941 | 1.02 | 1.01 | 0.972
NCI-H2087 | 1.2 |  |  | 1.05 | 0.976
NCI-H2126 | 1.36 | 0.958 | 1.31 | 1.02 | 
NCI-H2170 | 1.01 | 1.03 | 0.996 | 1.02 | 1
NCI-H2228 | 0.905 |  | 0.891 | 0.886 | 0.899
NCI-H2342 | 1.15 | 1.25 | 1.18 | 0.97 | 0.966
NCI-H2347 |  |  | 0.905 | 0.703 | 1.1
NCI-H2405 | 1.03 |  | 1.05 | 0.986 | 1.02
NCI-H3122 | 0.879 | 1.12 |  | 0.887 | 0.984
PC-3 [JPC-3] | 1.12 |  | 1.09 | 1.05 | 0.942
PC-14 | 0.934 | 0.84 | 1.08 | 0.934 | 0.983
RERF-LC-KJ | 0.909 | 0.757 |  | 0.794 | 0.834
SK-LU-1 | 0.978 | 0.888 | 0.892 | 0.73 | 0.869
SK-MES-1 | 0.957 | 0.915 | 1.03 | 0.786 | 0.963
SW 900 | 0.879 | 1.04 | 1.09 | 0.717 | 1.04
SW 1573 | 1.04 | 0.469 | 1.03 | 0.893 | 0.908
UMC-11 | 0.981 | 1.31 | 0.973 | 1.14 | 1.11
